According to patent US20160089346A1, “METHOD OF TREATMENT FOR BODY CONTOURING” (Neothetics, Inc., priority 2014, published 2016):

Key:
[1] = compared with albuterol, a short-acting hydrophilic beta-adrenergic agonist; cited from earlier work
[2] = system: central abdominal bulging due to excess subcutaneous fat; experiment: Phase 2 RESET trial: patient and clinician rating scales (P-GAPS, C-GAPS, PPnS, CPnS), composite responders; assay type: in vivo, human; conditions: 0.4 μg total weekly dose
Description: (§1) Methods: A randomized, double-blind, placebo-controlled study was conducted to evaluate the safety and efficacy of a composition comprising the long-acting beta-2 receptor agonist salmeterol xinafoate. This study was reviewed and approved by a central IRB (Chesapeake IRB, Columbia, Md.) and written informed consent was received from all study subjects. The study enrolled 513 adult subjects with central abdominal bulging at 31 investigative sites across the U.S. Subjects were required to be non-obese (BMI<30 kg/m^2), have a focal area of central abdominal bulging due to excess subcutaneous fat (˜400 cm^2 area around the umbilicus), have adequate skin elasticity, have at least a rating of “slight bulge, not flat” on both the 5-point Patient- and Clinician-Global Abdominal Perception Scales (P-GAPS and C-GAPS) at Screening and Day 1, and who were at least slightly dissatisfied with their abdominal bulging in the treatment area. The P-GAPS includes the ratings: flat, almost flat, slight bulge/not flat, […].
(§2) Subjects were randomized to receive 1 of 3 doses of salmeterol xinafoate (0.4, 1.0, or 4.0 μg total weekly dose) or placebo (0.9% Sodium Chloride Injection, USP) once a week for 8 weeks starting on Day 1 after all entry criteria had been satisfied. Randomization was based on a computer-generated, site-based randomization schedule, which was distributed to authorized, unblinded personnel at each site. Twenty, 1 mL weekly subcutaneous (SC) injections administered via a ½ inch 30 gauge needle were spaced 4 cm apart on the anterior abdomen between axial planes at +35 mm and −70 mm, relative to the umbilicus. Consistent injection placement was assured by the weekly application of a water-based temporary tattoo defining the location of the 20 administration injection sites. Efficacy endpoints included a Patient- and Clinician-Global Abdominal Perception Scale, a Patient and Clinician Photonumeric Scale (PPnS and CPnS) and duplicate abdominal circumference measurements (taken at +35 mm, 0 and −70 mm, relative to the umbilicus, using a standardized tape measurement (e.g., laser-guided) procedure).
A specific set of standardized instructions (e.g., patient positioning, posture, breathing, etc.) were followed for the collection of all ratings and measurements. Designated clinical site personnel were trained in person to perform each procedure; some procedures also included a training video. […] Specific to the laser-guided tape measure procedure, the reproducibility of the procedure beyond what is obtained with a standard manual tape measure was enhanced with the water-based tattoo on the anterior abdomen, a self-tensioning tape measure, a tripod-mounted laser level and electronic data capture to ensure the independent recording of circumferential measurements. […]

[3] = system: non-obese adult subjects with central abdominal bulging; experiment: Phase 2 RESET trial: adverse effects and tolerability; assay type: in vivo, human; conditions: for Any Adverse Event Definitely or Possibly Related to Study Drug (incidence): 20 SC injections once a week for 8 weeks
Description: as §1, §2
Demographics & Safety Results: Subjects enrolled in the study were primarily female (81%; 418/513), white (86%; 440/513), with a mean age of 38 (18−71) years and a mean BMI of 23.4 (18.2−29.9) kg/m^2. […] Ninety-two percent completed the study per protocol; 6 subjects (1%) were lost to follow-up, 4 subjects (<1%) were terminated for protocol violation, 10 subjects (2%) withdrew consent and 21 subjects (4%) withdrew for miscellaneous causes. […] The most frequently reported treatment-emergent adverse effects related to study drug were mild and transient injection site events, including hematoma, erythema, contusion, and pain. The incidence of these adverse effects is reported in Table 1 (a single incidence (<1%) of an adverse event was reported randomly across organ systems and all treatment groups and is not reported in the table). These injection site events occurred with a similar frequency in subjects in the placebo group and in the salmeterol xinafoate groups and were considered to be related to the typical mechanical trauma of an injection procedure rather than the study drug itself.

[4] = system: central abdominal bulging due to excess subcutaneous fat; experiment: Phase 2 RESET trial: abdominal circumference by laser-guided tape measure, and calculated abdominal volume; assay type: in vivo, human; conditions: 0.4 μg total weekly dose
Description: as §1, §2
A specific set of standardized instructions (e.g., patient positioning, posture, breathing, etc.) were followed for the collection of all ratings and measurements. Designated clinical site personnel were trained in person to perform each procedure; some procedures also included a training video. […] Specific to the laser-guided tape measure procedure, the reproducibility of the procedure beyond what is obtained with a standard manual tape measure was enhanced with the water-based tattoo on the anterior abdomen, a self-tensioning tape measure, a tripod-mounted laser level and electronic data capture to ensure the independent recording of circumferential measurements. Both the 5-point patient and clinician verbal scales (P-GAPS and C-GAPS) that assigned scores ranging from flat to big (or pronounced) bulge, as well as the 6-point patient and clinician photonumeric scales (PPnS and CPnS) that are a match-to-sample task in which an abdominal profile are selected from a series of 6 identical torsos with a progressively larger anterior abdominal bulge were specifically developed and validated to assess treatment effects in non-obese subjects with central abdominal bulging. Neither patients nor clinicians had access to the others' scale ratings and neither had access to previous scale scores. Final assessments on all outcome measures were performed 1 week after the last injections (Day 57±2 days).
All efficacy analyses used a repeated measures analysis of covariance (ANCOVA) model to determine differences between each active treatment group and placebo. […]

[5] = subjects weight neutral or lost weight (≦0 kg)

OCc1cc(C(O)CNCCCCCCOCCCCc2ccccc2)ccc1O (stereo not shown) [salmeterol]
Lipophilicity relative to albuterol [1]: at least 10,000 times

OCc1cc(C(O)CNCCCCCCOCCCCc2ccccc2)ccc1O (stereo not shown) [salmeterol xinafoate]
Change from baseline across all rating instruments (P-GAPS, C-GAPS, PPnS, CPnS) [2]: consistent mean reductions from baseline | Composite responders (2-point improvement on P-GAPS and 2-point improvement on CPnS) compared to placebo [2]: significantly more responders | % composite responders (1-point improvement on P-GAPS and 2-point improvement on CPnS) ([2]; all subjects): 16% | % composite responders (1-point improvement on P-GAPS and 2-point improvement on CPnS) [2, 5]: 22% | Injection Site Erythema (incidence) ([3]; 0.4 μg total weekly dose): 2% | Injection Site Hematoma (incidence) ([3]; 0.4 μg total weekly dose): 5% | Injection Site Hemorrhage (incidence) ([3]; 0.4 μg total weekly dose): 0% | Injection Site Pain (incidence) ([3]; 0.4 μg total weekly dose): 3% | Any Adverse Event Definitely or Possibly Related to Study Drug (incidence) ([3]; 0.4 μg total weekly dose): 11% | Injection Site Erythema (incidence) ([3]; 1.0 μg total weekly dose): 2% | Injection Site Hematoma (incidence) ([3]; 1.0 μg total weekly dose): 6% | Injection Site Hemorrhage (incidence) ([3]; 1.0 μg total weekly dose): 0% | Injection Site Pain (incidence) ([3]; 1.0 μg total weekly dose): 2% | Any Adverse Event Definitely or Possibly Related to Study Drug (incidence) ([3]; 1.0 μg total weekly dose): 12% | Injection Site Erythema (incidence) ([3]; 4.0 μg total weekly dose): 0% | Injection Site Hematoma (incidence) ([3]; 4.0 μg total weekly dose): 6% | Injection Site Hemorrhage (incidence) ([3]; 4.0 μg total weekly dose): 0% | Injection Site Pain (incidence) ([3]; 4.0 μg total weekly dose): 2% | Any Adverse Event Definitely or Possibly Related to Study Drug (incidence) ([3]; 4.0 μg total weekly dose): 12% | Tolerability ([3]; 0.4, 1.0 and 4.0 μg total weekly dose, 20 SC injections into abdominal adipose tissue once a week for 8 weeks): well tolerated | Significant adverse events during the study ([3]; all dose groups, 8 weeks): no significant adverse events | Change in abdominal volume from baseline ([4]; Day 57, all subjects, +35 mm to −70 mm relative to the umbilicus, placebo −90 mL, p=0.001): -192 mL | Mean change in abdominal circumference at the umbilicus from baseline ([4]; Day 57, all subjects, placebo −0.7 cm, p=0.001): −1.6 cm | Mean reduction in abdominal volume relative to placebo ([4]; all subjects): -102 mL | Mean reduction in umbilical circumference relative to placebo ([4]; all subjects): −0.9 cm | Mean reduction in abdominal volume from baseline [4, 5]: -329 mL | Mean reduction in abdominal volume relative to placebo [4, 5]: -175 mL | Mean reduction in umbilical circumference from baseline [4, 5]: −2.7 cm | Mean reduction in umbilical circumference relative to placebo [4, 5]: −1.6 cm | Dose comparison of efficacy across most outcome measures ([4]; lowest dose, 0.02 μg/mL): the most efficacious
